Source: US20220348590A1, “CYCLOOXYGENASE-2 INHIBITORS AND USES THEREOF” (The Board Institute, Inc., priority 2019, published 2022)
≈ marks a conversion by molar mass, not a printed value. Read-outs that look alike come from different tables or passages of the source.

How the values were obtained:
[1] = target: T1, human recombinant COX2 (hCOX2) (UniProt P35354); test: LCMS-based COX2 enzymatic inhibition assay (PGE2 quantification); type: biochemical; parameters: COX2 2 minutes pge2/pge2d4 area ratio Avg; other: 2 minutes; readout pge2/pge2d4 area ratio; average; COX2 2 minutes pge2/pge2d4 area ratio Avg; LLE; average LLE; COX2 2 minutes pge2 area (counts) Avg; readout pge2 area (counts); other: 2 min; "ovine COX2 (oCOX2), human recombinant COX2 (hCOX2)"; settings: for IC50: average
T1 sequence (P35354 1-604): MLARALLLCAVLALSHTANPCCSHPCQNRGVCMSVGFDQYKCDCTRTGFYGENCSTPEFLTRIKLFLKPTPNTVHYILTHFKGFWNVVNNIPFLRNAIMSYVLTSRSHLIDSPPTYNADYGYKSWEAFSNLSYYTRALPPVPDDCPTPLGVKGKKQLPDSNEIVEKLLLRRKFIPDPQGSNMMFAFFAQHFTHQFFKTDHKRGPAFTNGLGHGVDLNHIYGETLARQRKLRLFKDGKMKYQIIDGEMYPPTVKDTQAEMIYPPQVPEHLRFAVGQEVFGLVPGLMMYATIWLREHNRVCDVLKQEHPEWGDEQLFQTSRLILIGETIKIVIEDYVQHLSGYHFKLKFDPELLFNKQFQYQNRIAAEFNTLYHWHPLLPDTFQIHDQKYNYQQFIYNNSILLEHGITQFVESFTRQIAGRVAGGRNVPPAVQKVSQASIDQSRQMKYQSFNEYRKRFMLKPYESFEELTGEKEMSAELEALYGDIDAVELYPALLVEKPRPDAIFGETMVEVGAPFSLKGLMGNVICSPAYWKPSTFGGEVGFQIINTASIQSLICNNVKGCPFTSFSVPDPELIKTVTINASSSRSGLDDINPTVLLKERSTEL
Summary of the method: (§1)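 PGE2 formed from arachidonic acid (final 5 μM, 2 min) was measured by LC-MS-MS against DMSO controls. Enzyme (oCOX-1 0.1 μg or hCOX2 0.2 μg) with hematin/epinephrine cofactors at pH 8.0 was given 10 min at 37 °C with compound first. Twelve-point curves run three times gave IC50.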

[2] = Mouse Plasma Protein Stability (% Remaining); type: in vitro ADME; settings: average
[3] = mouse plasma protein binding (PPB) assay; type: in vitro ADME; settings: average, read-out: Mouse Plasma Protein Binding % Bound Avg (converted)
Description: (§2) We have adapted a previously reported cyclooxygenase enzymatic assay utilizing LCMS quantification of PGE2 as the product of COX-1 and COX2 catalyzed conversion of arachidonic acid to evaluate the binding properties of newly synthesized ligands [Cao, 2011]. These optimized and miniaturized (384-well plates) LCMS-based COX-1 and COX2 enzymatic assays enabled us to quickly evaluate newly synthesized ligands for COX2 binding affinity and selectivity vs COX-1. Using a shorter ligand-enzyme incubation time in the LCMS assay (2 minutes vs 10 minutes) also permitted us to prioritize ligands with faster binding kinetics. Considering the relatively slow on-rate kinetics of known coxibs, due to their 3-step binding mechanism [Marnett, 2009], we believe that optimizing this critical parameter will be key to the successful development of a COX2 PET tracer. Using these enzymatic assays, we have evaluated>200 newly synthesized ligands against COX2 and >20 ligands against COX-1. Another critical property necessary for a good PET radiotracer is to have low non-specific binding (NSB) to increase the free fraction and maximize the signal to noise ratio. This property can be evaluated using in-vitro protein binding assays, and we have now evaluated>50 newly synthesized ligands in mouse, rat and human plasma protein binding (PPB) assays as well as >15 ligands in a mouse brain protein binding (BPB) assay.

ovine COX-1 (oCOX-1) = target: T2, ovine COX-1 (oCOX-1) (Ovis aries, UniProt P05979); test: LCMS-based COX-1 enzymatic inhibition assay (PGE2 quantification); type: biochemical; settings: 10 minutes; for COX1 10 minutes pge2/pge2d4 area ratio Avg. LLE / COX1 10 minutes pge2 area (counts) Avg. LLE: average LLE; for IC50: average
T2 construct: purchased Cayman Chemicals (Ann Arbor, Mich.)
T2 sequence (P05979 25-600): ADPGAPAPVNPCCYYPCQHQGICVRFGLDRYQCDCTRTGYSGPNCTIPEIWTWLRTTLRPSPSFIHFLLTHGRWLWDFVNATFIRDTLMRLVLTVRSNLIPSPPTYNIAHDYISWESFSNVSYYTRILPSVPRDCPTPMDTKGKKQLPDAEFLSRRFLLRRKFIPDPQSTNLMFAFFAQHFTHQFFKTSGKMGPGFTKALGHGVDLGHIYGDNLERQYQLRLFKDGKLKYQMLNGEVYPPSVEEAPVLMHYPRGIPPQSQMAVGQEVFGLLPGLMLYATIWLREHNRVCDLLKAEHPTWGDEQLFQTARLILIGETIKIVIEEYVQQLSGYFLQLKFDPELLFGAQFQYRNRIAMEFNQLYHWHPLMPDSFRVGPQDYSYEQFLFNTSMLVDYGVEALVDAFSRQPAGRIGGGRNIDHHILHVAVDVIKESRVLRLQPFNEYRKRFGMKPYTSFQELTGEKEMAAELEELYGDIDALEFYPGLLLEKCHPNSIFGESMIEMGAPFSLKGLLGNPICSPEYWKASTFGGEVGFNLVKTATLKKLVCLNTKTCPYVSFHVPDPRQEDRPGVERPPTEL
Summary of the method: as §1

[4] = rat plasma protein binding (PPB) assay; type: in vitro ADME; settings: average, read-out: Rat Plasma Protein Binding % Bound Avg (converted)
Description: as §2

[5] = Rat Plasma Protein Stability (% Remaining); type: in vitro ADME; settings: average
[6] = human plasma protein binding (PPB) assay; type: in vitro ADME; settings: average, read-out: Human Plasma Protein Binding % Bound Avg (converted)
Description: as §2

[7] = Human Plasma Protein Stability (% Remaining); type: in vitro ADME; settings: average
PBS Solubility (no DMSO) = type: physicochemical; settings: aqueous buffer, thermodynamic from solid, average
[8] = Human Microsome Stability; type: in vitro ADME; settings: human microsomes
[9] = 2 minutes, readout pge2/pge2d4 area ratio, average LLE
[10] = 2 minutes, readout pge2/pge2d4 area ratio, read-out: COX2 2 minutes pge2/pge2d4 area ratio Avg. IC50
[11] = 2 minutes, readout pge2 area (counts), average LLE
[12] = 2 minutes, readout pge2 area (counts), read-out: COX2 2 minutes pge2 area (counts) Avg. IC50
[13] = readout pge2/pge2d4 area ratio, read-out: COX1 10 minutes pge2/pge2d4 area ratio Avg. IC50
[14] = readout pge2 area (counts), read-out: COX1 10 minutes pge2 area (counts) Avg. IC50

SMILES | COX2 2 minutes pge2/pge2d4 area ratio Avg. LLE [1, 9] | IC50 [1, 10] | COX2 2 minutes pge2 area (counts) Avg. LLE [1, 11] | IC50 [1, 12] | COX2 10 minutes pge2 area (counts) Avg. LLE ([1]; 10 minutes, readout pge2 area (counts), average LLE) | IC50 ([1]; 10 minutes, readout pge2 area (counts), read-out: COX2 10 minutes pge2 area (counts) Avg. IC50) | Mouse Plasma Protein Stability % Remaining Avg [2] | fraction unbound [3] | COX1 10 minutes pge2/pge2d4 area ratio Avg. LLE (ovine COX-1 (oCOX-1); readout pge2/pge2d4 area ratio) | IC50 (ovine COX-1 (oCOX-1); [13]) | COX1 10 minutes pge2 area (counts) Avg. LLE (ovine COX-1 (oCOX-1); readout pge2 area (counts)) | IC50 (ovine COX-1 (oCOX-1); [14]) | fraction unbound [4] | Rat Plasma Protein Stability % Remaining Avg [5] | fraction unbound [6] | Human Plasma Protein Stability % Remaining Avg [7] | solubility (PBS Solubility (no DMSO)) | Human Microsome Stability % Remaining Avg [8]
COc1cc(NCc2cccs2)cc(-c2ccc(S(C)(=O)=O)cc2)n1 [Compound 32] | 4.433 | 15.5 nM | 4.493 | 14 nM | 5.338 | 2.5 nM | 100.9% | 0.015 | – | – | – | – | – | – | – | – | – | –
CS(=O)(=O)c1ccc(-c2cncc(SCc3cccs3)n2)cc1 [Compound 18] | 4.93 | 9.99 nM | 5.018 | 8.22 nM | – | – | 103.7% | 0.002 | 2.392 | 3140 nM | 2.308 | 4430 nM | – | – | – | – | – | –
CS(=O)(=O)c1ccc(-c2nc(OCc3cccs3)cc3ccoc23)cc1 [Compound 5] | – | 6.05 nM | – | 7.14 nM | – | – | – | – | – | – | – | – | 0.001 | 99% | 0.001 | 102% | – | –
NS(=O)(=O)c1ccc(-c2cncc(OCc3cccs3)n2)cc1 [Compound 3] | 6.484 | 5.55 nM | 6.512 | 5.38 nM | – | – | 94.9% | 0.015 | 4.28 | 1100 nM | 4.323 | 913 nM | – | – | – | – | 8.5 µM (≈ 2.95 µg/mL) | –
CS(=O)(=O)c1ccc(-c2nc(NCc3ccoc3)ccc2F)cc1 [Compound 48] | – | 22 nM | – | 20.1 nM | – | – | – | – | – | – | – | – | 0.031 | 128% | 0.02 | 96% | 40 µM (≈ 13.9 µg/mL) | 34%
